Reference: patent publication US20250228826A1, “COMBINATION OF A GREMLIN-1 ANTAGONIST WITH AN INHIBITOR OF RAS-RAF-MEK-ERK SIGNALLING” (UCB BIOPHARMA SRL, priority 2022, published 2025)
Several values for one entry are separate records, joined by “and”; a condition that tells them apart may be missing. Equal values may be shown once.

Experiments:
[1] = test system: pancreatic tumours in KPC mice; test: Survival of KPC mice, Cox's proportional hazards model (Example 5); format: in vivo, mouse; settings: for Median survival: KPC mice, Example 5 cohort (Table 8), Ab7326 mIgG1 30 mg/kg s.c. twice weekly, Selumetinib 25 mg/kg p.o. b.i.d., UCB-554 10 mg/kg p.o. every 2 days; for Hazard ratio Ab7326/treatment: comparator Ab7326 alone
From the text: (§1) LSL-Kras^G12D/+; Trp53^R172H/+; Pdx1-Cre (KPC) mice have been described previously (Hingorani et al., 2005). Mice were generated by crossing mice bearing Pdx1-Cre, and conditional LSL-KrasG12D or LSL-Trp53R172H alleles (strains 01XJ6 and 01XL9, Mouse Models of Human Cancer Consortium [MMHCC], NCI-Frederick, Frederick, MD, USA). Mice on a mixed background were bred in-house at the CRUK Beatson Institute and maintained in conventional caging with environmental enrichment, access to standard chow and water ad libitum. Genotyping was performed by Transnetyx (Cordoba, TN, USA). Mice of both sexes were recruited onto study. All animal experiments were performed under a UK Home Office licence and approved by the University of Glasgow Animal Welfare and Ethical Review Board.
(§2) Mice were monitored 3 times weekly until a diagnosis of pancreatic cancer was made by abdominal palpation and confirmed by ultrasound imaging. […] Mice were monitored daily and sacrificed when reaching ethical endpoint.
(§3) Statistical assessment of survival of these mice from start of treatment was carried out using a Cox's proportional hazards model to calculate hazard ratios. Tumour volume data at day 7 data were analysed using a linear model suitable for a randomised design, fitting Treatment Tumour volume at day 0 was used as a covariate to increase the precision of the estimates.

[2] = test system: pancreatic tumours in KPC mice; test: Tumour volume by 3D ultrasound imaging in KPC mice (Example 5); format: in vivo, mouse
Method: The VisualSonics Vevo 3100 preclinical imaging platform (FUJIFILM VisualSonics, Toronto, Canada) was used for high-resolution ultrasound imaging to confirm tumour diagnosis and for weekly monitoring of tumour progression. Anaesthesia was induced and maintained with a mixture of isoflurane and medical air. Tumour volume was calculated weekly for each mouse and plotted longitudinally.
as §2, §3
The volume of the pancreatic tumours in control or treated KPC mice was measured over time using 3D tumour imaging by ultrasound.

[3] = test system: pancreatic tumours in KPC mice; test: Survival of KPC mice from start of treatment, Kaplan-Meier and Log-Rank (Examples 3 and 4); format: in vivo; settings: for Median survival: KPC mice survival cohort
From the text: as §1
Mice were monitored 3 times weekly until a diagnosis of pancreatic cancer was made by abdominal palpation and confirmed by ultrasound imaging. […] There were >12 mice per group. Mice were monitored daily and sacrificed either at 7 days post-initiation of treatment (4 mice per group) or when reaching ethical endpoint (>8 mice per group, symptoms include abdominal distension, cachexia, intermittent hunching or reduced mobility, piloerection, mild diarrhoea, anaemia). Statistical assessment of survival of these mice from start of treatment was carried out by Kaplan-Meier and Log-Rank analysis.
Mice were monitored at least weekly by palpation until pancreatic tumours were detectable.
For the survival cohort (Table 4), high resolution ultrasound imaging was performed weekly over the treatment period in order to monitor the tumour burden of each individual mouse on treatment. Mice remained on study and were closely monitored until ethical endpoint was reached, at which time they were sacrificed as per institutional guidelines.

Row | Compound | survival of KPC mice over vehicle only control or Ab7326 treatment ([1]; Example 5 cohort, in words) | Median survival [1] | Hazard ratio Vehicle/treatment ([1]; Table 9, Example 5 cohort, Cox model, >1 favours treatment) | Hazard ratio Ab7326/treatment ([1]; Table 9, Example 5 cohort, Cox model) | tumour volume at day 7 after start of treatment compared to vehicle or Ab7326 treatment alone [2] | Median survival ([3]; Example 4, same doses as Table 4) | Median survival ([3]; Table 4 (text b395 gives days), Ab7326 mIgG1 30 mg/kg s.c. twice weekly, Selumetinib 25 mg/kg p.o. b.i.d., Selumetinib arm historical data) | Days on Rx ([3]; survival of individual KPC mice on treatment, one line per mouse (Table 6)) | Hazard ratio Vehicle/treatment ([1]; Table 10, combined dataset Table 4 + Table 8, Cox model) | Hazard ratio Ab7326/treatment ([1]; Table 10, combined dataset Table 4 + Table 8)
1 | NCC1CN(C(=O)c2c(Nc3ccc(I)cc3F)sc3ncccc23)C1 [UCB-554, [3-(Aminomethyl)azetidin-1-yl]-{2-[(2-fluoro-4-iodophenyl)amino]thieno[2,3-b]pyridin-3-yl}-methanone] | moderate increase in survival | 21 days | 2.04 | 2.50 | tumour volume is reduced |  |  |  |  | 
2 | Cn1cnc2c(F)c(Nc3ccc(Br)cc3Cl)c(C(=O)NOCCO)cc21 [Selumetinib, 6-(4-bromo-2-chloroanilino)-7-fluoro-N-(2-hydroxyethoxy)-3-methylbenzimidazole-5-carboxamide] |  | 22 days |  |  | mean tumour volume is reduced | 17 days | 17 | 9 Days and 13 Days and 15 Days and 17 Days (2×) and 20 Days and 32 Days and 33 Days | 1.77 | 1.31
